Target: USP30 (Homo sapiens (Human), UniProt Q70CQ3)
Assay: USP30 biochemical IC50 assay
Conditions: fluorescence polarisation, TAMRA labelled peptide linked to ubiquitin substrate; enzyme and compound incubated 30 min at room temp; read after 2 h; read-out: IC50 range
Experimental: USP30 Biochemical IC50 Assay
Dilution plates were prepared at 21 times the final concentration (2100 μM for a final concentration of 100 μM) in 50% DMSO in a 96-well polypropylene V-bottom plate (Greiner #651201). A typical 8-point dilution series would be 100, 30, 10, 3, 1, 0.3, 0.1, 0.03 μM final. Reactions were performed in duplicate in black 384 well plates (small volume, Greiner 784076) in a final reaction volume of 21 μl. Either 1 μl of 50% DMSO or diluted compound was added to the plate. USP30 was diluted in reaction buffer (40 mM Tris, pH 7.5, 0.005% Tween 20, 0.5 mg/ml BSA, 5 mM beta-mercaptoethanol) to the equivalent of 0.05 μl/well and 10 μl of diluted USP30 was added to the compound. Enzyme and compound were incubated for 30 min at room temp. Reactions were initiated by the addition of 50 nM of TAMRA labelled peptide linked to ubiquitin via an iso-peptide bond as fluorescence polarisation substrate. Reactions were read immediately after addition of substrate and following a 2 h incubation at room temperature. Readings were performed on a Pherastar Plus (BMG Labtech). A Excitation 540 nm; A Emission 590 nm.

Chain of USP30 (Q70CQ3 57-517): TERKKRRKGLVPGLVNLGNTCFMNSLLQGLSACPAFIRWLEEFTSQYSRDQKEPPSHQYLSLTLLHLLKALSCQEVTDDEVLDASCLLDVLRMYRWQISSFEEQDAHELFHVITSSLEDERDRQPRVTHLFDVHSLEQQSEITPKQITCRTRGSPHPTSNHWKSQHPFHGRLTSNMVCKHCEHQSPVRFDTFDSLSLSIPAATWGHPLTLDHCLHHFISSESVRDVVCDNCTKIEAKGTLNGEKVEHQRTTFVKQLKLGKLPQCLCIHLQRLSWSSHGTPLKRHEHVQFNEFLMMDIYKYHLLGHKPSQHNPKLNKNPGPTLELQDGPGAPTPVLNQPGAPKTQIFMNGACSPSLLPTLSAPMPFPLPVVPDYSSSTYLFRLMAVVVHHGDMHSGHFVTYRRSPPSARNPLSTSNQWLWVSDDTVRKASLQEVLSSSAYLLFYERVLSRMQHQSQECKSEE

Row | SMILES | IC50 [nM]
1 | CC(C(=O)N1CC(c2ccc(C#N)cc2)C1)[C@@H]1CCN(C#N)C1 (single isomer, unassigned) [Example 61] | 1000 to 10000
2 | CC(C(=O)N1CC(c2ccc(C#N)cc2)C1)[C@@H]1CCN(C#N)C1 (single isomer, unassigned) [Example 62] | 100 to 1000
3 | COc1ccc(C2CN(C(=O)CC3CCN(C#N)C3)C2)cc1 (centres unmarked) [Example 1, 3-(2-(3-(4-Methoxyphenyl)azetidin-1-yl)-2-oxoethyl)pyrrolidine-1-carbonitrile] | 100 to 1000
4 | N#CN1CCC(CC(=O)Nc2cccc(Cl)c2)C1 (centres unmarked) [Example 2, N-(3-Chlorophenyl)-2-(1-cyanopyrrolidin-3-yl)acetamide] | 100 to 1000
5 | COc1ccc2nc(NC(=O)CC3CCN(C#N)C3)sc2c1 (centres unmarked) [Example 3, 2-(1-Cyanopyrrolidin-3-yl)-N-(6-methoxybenzo[d]thiazol-2-yl)acetamide] | 100 to 1000
6 | N#CN1CCC(CC(=O)Nc2ccc(C(F)(F)F)nc2)C1 (centres unmarked) [Example 4, 2-(1-Cyanopyrrolidin-3-yl)-N-(6-(trifluoromethyl)pyridin-3-yl)acetamide] | 1000 to 10000
7 | N#CN1CCC(CC(=O)Nc2nc3ccc(Cl)cc3s2)C1 (centres unmarked) [Example 5, N-(6-Chlorobenzo[d]thiazol-2-yl)-2-(1-cyanopyrrolidin-3-yl)acetamide] | 100 to 1000
8 | N#CN1CCC(CC(=O)Nc2cc(-c3ccccc3)no2)C1 (centres unmarked) [Example 6, 2-(1-Cyanopyrrolidin-3-yl)-N-(3-phenylisoxazol-5-yl)acetamide] | 100 to 1000
9 | N#CN1CCC(CC(=O)Nc2nc3cc(Cl)ccc3o2)C1 (centres unmarked) [Example 8, N-(5-Chlorobenzo[d]oxazol-2-yl)-2-(1-cyanopyrrolidin-3-yl)acetamide] | 100 to 1000
10 | N#CN1CCC(CC(=O)Nc2ccc(Cl)c(Cl)c2)C1 (centres unmarked) [Example 9, 2-(1-Cyanopyrrolidin-3-yl)-N-(3,4-dichlorophenyl)acetamide] | 100 to 1000
11 | N#CN1CCC(CC(=O)Nc2ncc(-c3ccccc3)s2)C1 (centres unmarked) [Example 10, 2-(1-Cyanopyrrolidin-3-yl)-N-(5-phenylthiazol-2-yl)acetamide] | 100 to 1000
12 | N#CN1CCC(CC(=O)NCCc2ccccc2)C1 (centres unmarked) [Example 11, 2-(1-Cyanopyrrolidin-3-yl)-N-phenethylacetamide] | 1000 to 10000
13 | N#CN1CCC(CC(=O)N2CC(Oc3ccccc3)C2)C1 (centres unmarked) [Example 12, 3-(2-Oxo-2-(3-phenoxyazetidin-1-yl)ethyl)pyrrolidine-1-carbonitrile] | 100 to 1000
14 | COc1cccc(C2CN(C(=O)CC3CCN(C#N)C3)C2)c1 (centres unmarked) [Example 13, 3-(2-(3-(3-Methoxyphenyl)azetidin-1-yl)-2-oxoethyl)pyrrolidine-1-carbonitrile] | 100 to 1000
15 | Cc1cc(C2CN(C(=O)CC3CCN(C#N)C3)C2)ccn1 (centres unmarked) [Example 15, 3-(2-(3-(2-Methylpyridin-4-yl)azetidin-1-yl)-2-oxoethyl)pyrrolidine-1-carbonitrile] | 1000 to 10000
16 | Cc1noc(C)c1-c1ccc2nc(NC(=O)CC3CCN(C#N)C3)cn2c1 (centres unmarked) [Example 16, 2-(1-Cyanopyrrolidin-3-yl)-N-(6-(3,5-dimethylisoxazol-4-yl)imidazo[1,2-a]pyridin-2-yl)acetamide] | 1000 to 10000
17 | COc1ccc(C2CN(C(=O)C=C3CCN(C#N)C3)C2)cc1 [Example 17, 3-(2-(3-(4-Methoxyphenyl)azetidin-1-yl)-2-oxoethylidene)pyrrolidine-1-carbonitrile] | 100 to 1000
18 | N#CN1CCC(=CC(=O)N2CC(c3ccccc3)C2)C1 [Example 18, 3-(2-Oxo-2-(3-phenylazetidin-1-yl)ethylidene)pyrrolidine-1-carbonitrile] | 100 to 1000

Row | SMILES | IC50 [nM]
19 | Cc1ccc(NC(=O)C=C2CCN(C#N)C2)cc1Cl [Example 19, N-(3-Chloro-4-methylphenyl)-2-(1-cyanopyrrolidin-3-ylidene)acetamide] | 100 to 1000
20 | N#CN1CCC(=CC(=O)Nc2ccc(Cl)c(C(F)(F)F)c2)C1 [Example 20, N-(4-Chloro-3-(trifluoromethyl)phenyl)-2-(1-cyanopyrrolidin-3-ylidene)acetamide] | 100 to 1000
21 | N#CN1CCC(=CC(=O)Nc2ccc3ncsc3c2)C1 [Example 21, N-(Benzo[d]thiazol-6-yl)-2-(1-cyanopyrrolidin-3-ylidene)acetamide] | 1000 to 10000
22 | N#CN1CCC(=CC(=O)Nc2ccc(Oc3ccccc3)cc2)C1 [Example 22, 2-(1-Cyanopyrrolidin-3-ylidene)-N-(4-phenoxyphenyl)acetamide] | 10 to 100
23 | N#CN1CCC(=CC(=O)Nc2cnc3ccccc3c2)C1 [Example 23, 2-(1-Cyanopyrrolidin-3-ylidene)-N-(quinolin-3-yl)acetamide] | 100 to 1000
24 | CN(Cc1ccc2ncccc2c1)C(=O)C=C1CCN(C#N)C1 [Example 24, 2-(1-Cyanopyrrolidin-3-ylidene)-N-methyl-N-(quinolin-6-ylmethyl)acetamide] | 100 to 1000
25 | CN(Cc1cc(-c2ccccc2)on1)C(=O)C=C1CCN(C#N)C1 [Example 25, 2-(1-Cyanopyrrolidin-3-ylidene)-N-methyl-N-((5-phenylisoxazol-3-yl)methyl)acetamide] | 100 to 1000
26 | CN(Cc1cccc(-c2ccncc2)c1)C(=O)C=C1CCN(C#N)C1 [Example 26, 2-(1-Cyanopyrrolidin-3-ylidene)-N-methyl-N-(3-(pyridin-4-yl)benzyl)acetamide] | 100 to 1000
27 | CN(Cc1cc(-c2ccccc2)no1)C(=O)C=C1CCN(C#N)C1 [Example 27, 2-(1-Cyanopyrrolidin-3-ylidene)-N-methyl-N-((3-phenylisoxazol-5-yl)methyl)acetamide] | 100 to 1000
28 | CN(Cc1ccc(N2CCCC2)cc1)C(=O)C=C1CCN(C#N)C1 [Example 28, 2-(1-Cyanopyrrolidin-3-ylidene)-N-methyl-N-(4-(pyrrolidin-1-yl)benzyl)acetamide] | 100 to 1000
29 | CN(Cc1cc(-c2ccccc2)[nH]n1)C(=O)C=C1CCN(C#N)C1 [Example 30, 2-(1-Cyanopyrrolidin-3-ylidene)-N-methyl-N-((5-phenyl-1H-pyrazol-3-yl)methyl)acetamide] | 100 to 1000
30 | N#CN1CCC(=CC(=O)NCc2cc(C(F)(F)F)ccc2F)C1 [Example 31, 2-(1-Cyanopyrrolidin-3-ylidene)-N-(2-fluoro-5-(trifluoromethyl)benzyl)acetamide] | 1000 to 10000
31 | CN(C(=O)C=C1CCN(C#N)C1)c1nc2ccccc2s1 [Example 32, N-(Benzo[d]thiazol-2-yl)-2-(1-cyanopyrrolidin-3-ylidene)-N-methylacetamide] | 100 to 1000
32 | CN(Cc1ccc(Cl)c(Cl)c1)C(=O)C=C1CCN(C#N)C1 [Example 33, 2-(1-Cyanopyrrolidin-3-ylidene)-N-(3,4-dichlorobenzyl)-N-methylacetamide] | 100 to 1000
33 | N#CN1CC[C@@H](CC(=O)Nc2cc(-c3ccc(Cl)cc3)no2)C1 [Example 34, (S)—N-(3-(4-Chlorophenyl)isoxazol-5-yl)-2-(1-cyanopyrrolidin-3-yl)acetamide] | 100 to 1000
34 | N#CN1CC[C@H](CC(=O)Nc2cc(-c3ccc(Cl)cc3)no2)C1 [Example 35, (R)—N-(3-(4-Chlorophenyl)isoxazol-5-yl)-2-(1-cyanopyrrolidin-3-yl)acetamide] | 100 to 1000
35 | N#CN1CC[C@H](CC(=O)Nc2cc(-c3cccc(Cl)c3)no2)C1 [Example 36, (R)—N-(3-(3-Chlorophenyl)isoxazol-5-yl)-2-(1-cyanopyrrolidin-3-yl)acetamide] | 1 to 10
